{
  "source": "patent US10017538B2",
  "about": "“Bioactive peptides having insecticide activity” (The United States of America, as represented by the …, priority 2016, dated 2018)",
  "data": [
    {"tested_on": "Solenopsis invicta workers", "experiment": "Injection bioassay of peptides in fire ant workers, adult mortality", "assay_type": "in vivo", "details": "peptide with Cys-Cys S-S bond in insect saline, injected into fire ant workers", "procedure": "Peptides identified herein are injected into the hemocoel of Solenopsis invicta workers using a Nanoliter 2000™ System (World Precision Instruments) with pulled borosilicate needles.\n(§1) To determine the negative impact these peptides may have against fire ants, synthesis of potential candidates of small peptides with Cysteine-Cysteine S—S bond at the N- and C-terminal ends of SEQ ID NO: 2 and SEQ ID NO: 14. Synthesis of the peptides is described above. These peptides were dissolved in an insect saline (composition in mM: NaCl 126, KCl 5.4, NaH2PO4 0.17 and KH2PO4 0.22, pH 7.4) or the saline only control were injected into fire ant workers and phenotypic effects monitored.\nas §1, with “NO:2-SEQ” for “NO: 2 and SEQ”, “NO:14.” for “NO: 14.”", "values": [
      {"substance": "CGSHFC (Synthetically generated peptide) [SEQ ID NO: 14, short synthetically generated peptide]", "adult mortality compared to the saline control": "did not affect adult mortality"},
      {"substance": "CIQQGSHFC (Synthetically generated peptide) [SEQ ID NO: 4, synthetically generated peptide, loop-constrained by flanking cysteines]", "adult mortality compared to the saline control": "significant increase in adult mortality"},
      {"substance": "CLKIGSHFC (Synthetically generated peptide) [SEQ ID NO: 3, synthetically generated peptide, loop-constrained by flanking cysteines]", "adult mortality compared to the saline control": "significant increase in adult mortality"},
      {"substance": "CMARYMSAC (Synthetically generated peptide) [SEQ ID NO: 11, synthetically generated peptide, loop-constrained by flanking cysteines]", "adult mortality compared to the saline control": "significant increase in adult mortality"},
      {"substance": "CQKIGSHFC (Synthetically generated peptide) [SEQ ID NO: 2, synthetically generated peptide, loop-constrained by flanking cysteines]", "adult mortality compared to the saline control": "increase in adult mortality"},
      {"substance": "CRGATPMSC (Synthetically generated peptide) [SEQ ID NO: 12, synthetically generated peptide, loop-constrained by flanking cysteines]", "adult mortality compared to the saline control": "significant increase in adult mortality"}
    ]}
  ]
}
